Experimental data reported in patent US6737383B1, “Herbicidal oxadiazolidines” (priority 1999, dated 2004).

What was measured:
[1] = tested on: bedstraw; assay: Test B pre/postemergence bedstraw; format: in vivo, Galium aparine
Summary of the method: (§1)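 Herbicidal effect was estimated by eye on a ten-point control scale after plants spent twelve to sixteen days in a greenhouse following soil or foliar treatment. Foliar sprays targeted plants at one to four leaves; all doses were formulated in a non-phytotoxic solvent with surfactant.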

[2] = tested on: blackgrass; assay: Test B pre/postemergence blackgrass; format: in vivo, Alopecurus myosuroides
Summary of the method: as §1

[3] = tested on: surinam grass; assay: Test B pre/postemergence surinam grass; format: in vivo, Brachiaria decumbens
Summary of the method: as §1

[4] = tested on: smallflower flatsedge; assay: Test B flood test smallflower flatsedge; format: in vivo, Cyperus difformis
Summary of the method: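 Read-out is a visual response score from 0 (no effect) to 10 (complete control), assigned by comparison with untreated controls. Treatment was applied at the 2-leaf stage, and plants stayed in the greenhouse for twelve to sixteen days before scoring.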

[5] = Postemergence, Rate 125 g/ha, scale 0 to 10, 0 is no effect, 10 is complete control
[6] = Preemergence, Rate 62 g/ha, scale of 0 to 10 where 0 is no effect and 10 is complete control
[7] = Preemergence, Rate 250 g/ha, scale of 0 to 10 where 0 is no effect and 10 is complete control
[8] = Rate 62 g/ha, Postemergence, scale 0 to 10 (0 no effect, 10 complete control)
[9] = Rate 250 g/ha, Postemergence, scale of 0 to 10 where 0 is no effect and 10 is complete control
[10] = Rate 500 g/ha, Postemergence, scale 0 to 10, 0 no effect, 10 complete control
[11] = Preemergence, Rate 500 g/ha, scale of 0 to 10 where 0 is no effect and 10 is complete control
[12] = Rate 62 g/ha, headed Pre-emergence (flood test species), scale 0 to 10 (0 no effect, 10 complete control)
[13] = Rate 125 g/ha, Pre-emergence, flood test species, scale 0 to 10 where 0 is no effect and 10 is complete control
[14] = Rate 250 g/ha, Pre-emergence, flood-test species, scale 0 to 10, 0 is no effect, 10 is complete control
[15] = Rate 500 g/ha, Pre-emergence, flood test species, scale 0 to 10 (0 no effect, 10 complete control)

SMILES	Plant response rating, Bedstraw [1, 5]	Bedstraw plant response rating [1, 6]	Bedstraw plant response rating (0 to 10 scale) ([1]; Preemergence, Rate 125 g/ha)	Bedstraw plant response rating [1, 7]	Bedstraw plant response rating [1, 8]	Plant response rating, Bedstraw [1, 9]	Plant response rating, Bedstraw [1, 10]	Plant response rating, Blackgrass [2, 5]	Blackgrass plant response rating [2, 6]	Blackgrass plant response rating (0 to 10 scale) ([2]; Preemergence, Rate 125 g/ha)	Blackgrass plant response rating [2, 7]	Blackgrass plant response rating [2, 11]	Blackgrass plant response rating [2, 8]	Plant response rating, Blackgrass [2, 9]	Plant response rating, Blackgrass [2, 10]	Plant response rating, B. signalgrass [3, 5]	B. signalgrass plant response rating [3, 6]	B. signalgrass plant response rating (0 to 10 scale, 0 is no effect, 10 is complete control) ([3]; Preemergence, Rate 125 g/ha)	B. signalgrass plant response rating [3, 7]	B. signalgrass plant response rating [3, 11]	also measured
CC(C)N(C(=O)n1oc(=O)n(-c2ccc3ccccc3c2)c1=O)c1ccc(F)cc1F [Compound 335]	0	0	0	0	0	0	4	0	0	0	0	0	0	0	0	0	0	0	0	0	B. signalgrass plant response rating [3, 8]: 0; Plant response rating, B. signalgrass [3, 9]: 0; Plant response rating, B. signalgrass [3, 10]: 0; S. Flatsedge plant response rating [4, 12]: 0; S. Flatsedge plant response rating [4, 13]: 0; S. Flatsedge plant response rating [4, 14]: 0; S. Flatsedge plant response rating [4, 15]: 0
Cc1c(-n2c(=O)on(C(=O)N(c3ccc(F)cc3)C(C)C)c2=O)ccc2ccccc12 [Compound 338]	2	0	0	0	0	2	5	0	0	0	0	0	0	0	0	0	0	0	0	0	Bedstraw plant response rating [1, 11]: 0; B. signalgrass plant response rating [3, 8]: 0; Plant response rating, B. signalgrass [3, 9]: 0; Plant response rating, B. signalgrass [3, 10]: 0; S. Flatsedge plant response rating [4, 12]: 0; S. Flatsedge plant response rating [4, 13]: 0; S. Flatsedge plant response rating [4, 14]: 0; S. Flatsedge plant response rating [4, 15]: 0
